Experimental data published in patent publication US9120793B2, “Triazolo-pyridine compound” (Eli Lilly and Company, priority 2013, dated 2015).

How the values were obtained:
[1] = system: Zucker fa/fa rats; assay: Chronic oral glucose tolerance test (OGTT); format: in vivo, rat
Description: OGTTs are performed in Zucker fa/fa rats, a rodent model of insulin resistance, after 1 and 21 days of orally administered exemplified compound at 1.0, 3.0 and 10 mg/kg. A standard GPR-40 agonist at 1 mg/kg serves as the positive control. OGTTs are performed one hour post compound administration with blood samples taken for determination of glucose and insulin levels at 10, 20, 40, 60, and 120 minutes post glucose administration. […] Weight and food consumption are not altered due to any treatment during the study.

[2] = system: Male Balb/c mice; assay: Intraperitoneal glucose tolerance test (ipGTT); format: in vivo; parameters: key to Effect on blood glucose, statistical significance compared to vehicle during ipGTT: *P < 0.05; **P < 0.01; ****P < 0.0001; ns: not significant
From the text: To examine the ability of the compound of Example 1 to activate GPR-40 in-vivo resulting in anti-diabetic efficacy, i.e. reduction in plasma glucose levels, an intraperitoneal glucose tolerance test (ipGTT) study is completed, and the data is shown for the compound of Example 1, below in Table 7.
Male Balb/c (Albino mice) mice (8-9 weeks of age) are single housed, and fed with normal rodent chow diet and water ad libitum. Animals are weighed; randomized by body weight; and their daily body weights are recorded. On the night before the study, animals are fasted overnight. In the morning, animals are dosed orally with compound of Example 1 or vehicle alone 60 minutes prior to the glucose tolerance test (glucose 2 g/kg, i.p.). Blood glucose levels are determined from tail bleeds taken at 0, 3, 7, 15, 30, and 60 min after glucose challenge. […] Percent lowering in glucose is calculated from the AUC data of the compound with respect to the AUC of vehicle group. The compound of Example 1 is orally administered at 0.1, 0.3, 1.0, 3.0, 10, or 30 mg/kg, and a positive control (3-[4-(2-methyl-benzyloxy)-phenyl]-hex-4-ynoic acid) is administered at 10 mg/kg.

[3] = target: T1, human GPR-40 (Homo sapiens, UniProt O14842); assay: Calcium Flux Primary Assay; format: cell-based
T1 construct: expressed in transfected cells; host or cells: HEK293
Description: HEK293 cells over expressing the human GPR-40 cDNA maintained in Dulbecco's modified Eagle's medium with F12 medium in 3:1 ratio supplemented with 10% FBS and 800 μg/ml geneticin at 37° C. and 5% CO2 are employed for the study. Agonist assays are performed using a Calcium 4 Dye assay kit (Molecular Devices) in the presence or absence of 0.1% fatty acid free BSA in the assay buffer (1×HBSS (Hank's Balanced Salt Solution) & 20 mM HEPES (4-(2-hydroxyethyl)-1-piperazineethanesulfonic acid). Receptor activation is measured as an increase in intracellular calcium using the Fluorometric Imaging Plate Reader (FLIPR). Maximum change in fluorescence over the base line is used to determine the agonist response. The EC50 value of the compound is calculated using Excel Fit software (version 4; IDBS) by plotting concentration vs relative fluorescence units (RFUs). […] (Mean±SEM; SEM=standard error of the mean.)

T1 sequence (O14842 whole entry): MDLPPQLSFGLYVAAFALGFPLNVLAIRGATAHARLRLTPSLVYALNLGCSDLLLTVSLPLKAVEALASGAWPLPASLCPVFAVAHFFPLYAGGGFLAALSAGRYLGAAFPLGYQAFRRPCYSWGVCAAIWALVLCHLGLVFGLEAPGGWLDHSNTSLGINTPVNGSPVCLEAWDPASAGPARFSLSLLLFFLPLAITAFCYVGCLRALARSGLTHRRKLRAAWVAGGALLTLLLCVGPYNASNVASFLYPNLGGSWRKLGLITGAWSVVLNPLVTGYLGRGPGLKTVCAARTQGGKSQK

CC#C[C@@H](CC(=O)O)c1ccc(OCc2ccc3nc(-c4c(C)cccc4C)nn3c2)cc1 [Example 1, (3S)-3-[4-[[2-(2,6-Dimethylphenyl)-[1,2,4]triazolo[1,5-a]pyridin-6-yl]methoxy]phenyl]hex-4-ynoic acid]
Weight and food consumption ([1]; 21 days oral administration, any treatment): not altered
ED90 for glucose lowering ([1]; day 1, oral): 4.1 mg/kg
ED90 for glucose lowering ([1]; day 21, oral): 5.0 mg/kg
AUCs for glucose lowering ([1]; days 1 and 21, oral 1, 3 and 10 mg/kg, p<0.05): statistically significant
Insulin AUCs during the OGTTs ([1]; oral 1, 3 and 10 mg/kg, values not statistically significant): dose dependent elevation
glucose levels at the 15 minute time point ([2]; 30 mg/kg dose, oral): significantly lowered
glucose levels at the 3 or 7 minute time points ([2]; Example 1 0.1-30 mg/kg oral, positive control 10 mg/kg): No concentration of compound of Example 1 or the positive control significantly lowered
glucose levels at the 30 minute time point ([2]; Example 1 1.0, 10 and 30 mg/kg doses, positive control 10 mg/kg): significantly lowered
glucose levels at the 60 minute time point ([2]; Example 1 3.0, 10 and 30 mg/kg doses, positive control 10 mg/kg): significantly lowered
ED50 ([2]; Mus musculus, oral, 60 minutes prior to glucose 2 g/kg i.p., read-out: ED50 based on AUCs for glucose lowering): 7.6 mg/kg
Effect on blood glucose, statistical significance compared to vehicle during ipGTT ([2]; dose 0.1 mpk oral, time 0 min): Ns
Effect on blood glucose, statistical significance compared to vehicle during ipGTT ([2]; dose 0.1 mpk oral, time 3 min): ns
Effect on blood glucose, statistical significance compared to vehicle during ipGTT ([2]; dose 0.1 mpk oral, time 7 min): ns
Effect on blood glucose, statistical significance compared to vehicle during ipGTT ([2]; dose 0.1 mpk oral, time 15 min): Ns
Effect on blood glucose, statistical significance compared to vehicle during ipGTT ([2]; dose 0.1 mpk oral, time 30 min): ns
Effect on blood glucose, statistical significance compared to vehicle during ipGTT ([2]; dose 0.1 mpk oral, time 60 min): ns
Effect on blood glucose, statistical significance compared to vehicle during ipGTT ([2]; dose 0.3 mpk oral, time 0 min): Ns
Effect on blood glucose, statistical significance compared to vehicle during ipGTT ([2]; dose 0.3 mpk oral, time 3 min): ns
Effect on blood glucose, statistical significance compared to vehicle during ipGTT ([2]; dose 0.3 mpk oral, time 7 min): ns
Effect on blood glucose, statistical significance compared to vehicle during ipGTT ([2]; dose 0.3 mpk oral, time 15 min): ns
Effect on blood glucose, statistical significance compared to vehicle during ipGTT ([2]; dose 0.3 mpk oral, time 30 min): ns
Effect on blood glucose, statistical significance compared to vehicle during ipGTT ([2]; dose 0.3 mpk oral, time 60 min): ns
Effect on blood glucose, statistical significance compared to vehicle during ipGTT ([2]; dose 1 mpk oral, time 0 min): Ns
Effect on blood glucose, statistical significance compared to vehicle during ipGTT ([2]; dose 1 mpk oral, time 3 min): ns
Effect on blood glucose, statistical significance compared to vehicle during ipGTT ([2]; dose 1 mpk oral, time 7 min): ns
Effect on blood glucose, statistical significance compared to vehicle during ipGTT ([2]; dose 1 mpk oral, time 15 min): ns
Effect on blood glucose, statistical significance compared to vehicle during ipGTT ([2]; dose 1 mpk oral, time 30 min): * (*P < 0.05)
Effect on blood glucose, statistical significance compared to vehicle during ipGTT ([2]; dose 1 mpk oral, time 60 min): ns
Effect on blood glucose, statistical significance compared to vehicle during ipGTT ([2]; dose 3 mpk oral, time 0 min): Ns
Effect on blood glucose, statistical significance compared to vehicle during ipGTT ([2]; dose 3 mpk oral, time 3 min): ns
Effect on blood glucose, statistical significance compared to vehicle during ipGTT ([2]; dose 3 mpk oral, time 7 min): ns
Effect on blood glucose, statistical significance compared to vehicle during ipGTT ([2]; dose 3 mpk oral, time 15 min): ns
Effect on blood glucose, statistical significance compared to vehicle during ipGTT ([2]; dose 3 mpk oral, time 30 min): ns
Effect on blood glucose, statistical significance compared to vehicle during ipGTT ([2]; dose 3 mpk oral, time 60 min): ** (**P < 0.01)
Effect on blood glucose, statistical significance compared to vehicle during ipGTT ([2]; dose 10 mpk oral, time 0 min): Ns
Effect on blood glucose, statistical significance compared to vehicle during ipGTT ([2]; dose 10 mpk oral, time 3 min): ns
Effect on blood glucose, statistical significance compared to vehicle during ipGTT ([2]; dose 10 mpk oral, time 7 min): ns
Effect on blood glucose, statistical significance compared to vehicle during ipGTT ([2]; dose 10 mpk oral, time 15 min): ns
Effect on blood glucose, statistical significance compared to vehicle during ipGTT ([2]; dose 10 mpk oral, time 30 min): **** (****P < 0.0001)
Effect on blood glucose, statistical significance compared to vehicle during ipGTT ([2]; dose 10 mpk oral, time 60 min): **** (****P < 0.0001)
Effect on blood glucose, statistical significance compared to vehicle during ipGTT ([2]; dose 30 mpk oral, time 0 min): Ns
Effect on blood glucose, statistical significance compared to vehicle during ipGTT ([2]; dose 30 mpk oral, time 3 min): ns
Effect on blood glucose, statistical significance compared to vehicle during ipGTT ([2]; dose 30 mpk oral, time 7 min): ns
Effect on blood glucose, statistical significance compared to vehicle during ipGTT ([2]; dose 30 mpk oral, time 15 min): ** (**P < 0.01)
Effect on blood glucose, statistical significance compared to vehicle during ipGTT ([2]; dose 30 mpk oral, time 30 min): **** (****P < 0.0001)
Effect on blood glucose, statistical significance compared to vehicle during ipGTT ([2]; dose 30 mpk oral, time 60 min): **** (****P < 0.0001)
EC50 ([3]; HEK293 cells over expressing human GPR-40, intracellular calcium, FLIPR): 119 nM
efficacy ([3]; maximal response compared to natural ligand linoleic acid): 76%
